Measurements published in patent US9169217B2, “Arylalkyl esters of 4-amino-6-(substituted phenyl)-picolinates and 6-amino-2-(substituted phenyl)-pyrimidinecarboxylates and their use as selective herbicides for crops” (Dow AgroSciences LLC, priority 2011, dated 2015).

Experiments:
Format in all cases: in vivo
[1] = test system: Echinochloa colonum (L.) LINK (junglerice); assay: Postemergence foliar-applied herbicidal activity in direct seeded rice (Example 16); details: for GR50 / GR80 / GR90: ECHCO, probit analysis; for GR50: 50% growth reduction; for GR80: 80% growth reduction; for GR90: 90% growth reduction; for pest or weed control at 8.75 g/ha: Echinochloa colona, post-emergence, 504 h, rice cropping systems, 8.75 g ae/ha, 21 DAA, may represent multiple trials, read-out: Visual Injury (%) ECHCO
Procedure, shortened: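 Greenhouse plants at 2nd–3rd true leaf stage (10–17 d, ~29/26 °C, 14-h photoperiod) sprayed postemergence with ester forms in acetone–DMSO plus 1.25% crop oil concentrate at 187 L/ha. Visual injury scored 0–100% versus untreated plants after 3 weeks; GR50/GR80 derived by probit analysis.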

[2] = test system: Polygonum convolvulus (Buckwheat, wild); assay: Postemergence herbicidal activity in cereal crops (Example 14); details: wheat cropping systems, postemergence spray, 35 g ae/ha, 21 DAA
Method: (§1) Seeds of the desired test plant species were planted in Sun Gro Metro-Mix® 360 planting mixture, which typically has a pH of 6.0 to 6.8 and an organic matter content of about 30 percent, in plastic pots with a surface area of 84.6 cm^2. When required to ensure good germination and healthy plants, a fungicide treatment and/or other chemical or physical treatment was applied. The plants were grown for 7-36 d in a greenhouse with an approximate 14 h photoperiod which was maintained at about 18° C. during the day and 17° C. during the night. Nutrients and water were added on a regular basis and supplemental lighting was provided with overhead metal halide 1000-Watt lamps as necessary. The plants were employed for testing when they reached the second or third true leaf stage.
(§2) Treatments consisted of esters of compounds 33, 34, 39, 40 and 42 and B, F, G and H. Compound B is methyl 4-amino-3-chloro-6-(4-cyclopropylphenyl)-5-fluoropicolinate; compound F is methyl 6-amino-2-(4-chloro-2-fluoro-3-methoxyphenyl)-5-methoxypyrimidine-4-carboxylate; compound G is methyl 4-amino-3-chloro-6-(4-chloro-2-fluoro-3-methoxyphenyl)picolinate; and compound H is methyl 4-amino-3-chloro-6-(4-chloro-2-fluoro-3-(1-fluoroethyl)phenyl)-5-fluoropicolinate. A weighed amount, determined by the highest rate to be tested, of each test compound was placed in a 25 mL glass vial and was dissolved in 8 mL of a 97:3 v/v mixture of acetone and DMSO to obtain concentrated stock solutions. […] The concentrated stock solutions obtained were diluted with 16 mL of an aqueous mixture containing acetone, water, isopropyl alcohol, DMSO, Agri-dex crop oil concentrate, and Triton® X-77 surfactant in a 64.7:26.0:6.7:2.0:0.7:0.01 v/v ratio to obtain spray solutions containing the highest application rates. Additional application rates were obtained by serial dilution of 12 mL of the high rate solution into a solution containing 4 mL of a 97:3 v/v mixture of acetone and DMSO and 8 mL of an aqueous mixture containing acetone, water, isopropyl alcohol, DMSO, Agri-dex crop oil concentrate, and Triton® X-77 surfactant in a 48.5:39.0:10.0:1.5:1.0:0.02 v/v ratio to obtain ½×, ¼×, ⅛× and 1/16× rates of the high rate. Compound requirements are based upon a 12 mL application volume at a rate of 187 L/ha. Formulated compounds were applied to the plant material with an overhead Mandel track sprayer equipped with 8002E nozzles calibrated to deliver 187 L/ha over an application area of 0.503 m^2 at a spray height of 18 inches (43 cm) above average plant canopy height. Control plants were sprayed in the same manner with the blank.
(§3) The treated plants and control plants were placed in a greenhouse as described above and watered by sub-irrigation to prevent wash-off of the test compounds. After 20-22 d, the condition of the test plants as compared with that of the untreated plants was determined visually and scored on a scale of 0 to 100 percent where 0 corresponds to no injury and 100 corresponds to complete kill.

[3] = test system: Brassica sinapis (Mustard, wild); assay: as above; details: wheat cropping systems, postemergence spray, 35 g ae/ha, 21 DAA
Method: as §1, §2, §3

[4] = test system: Matricaria chamomilla (Mayweed, wild); assay: as above; details: wheat cropping systems, postemergence spray, 35 g ae/ha, 21 DAA
Method: as §1, §2, §3

Compound | GR50 [1] | GR80 [1] | GR90 [1] | pest or weed control at 8.75 g/ha [1] | Visual Injury (%) POLCO [2] | Visual Injury (%) SINAR [3] | Visual Injury (%) MATCH [4]
COc1c(Cl)ccc(-c2nc(C(=O)OCc3ccccc3)c(Cl)c(N)c2F)c1F [Compound 1, benzyl 4-amino-3-chloro-6-(4-chloro-2-fluoro-3-methoxyphenyl)-5-fluoropicolinate] | 2.4 g ae/ha | 7.8 g ae/ha | 14.4 g ae/ha |  |  |  | 
COC(=O)c1nc(-c2ccc(C3CC3)cc2)c(F)c(N)c1Cl [Compound B, methyl 4-amino-3-chloro-6-(4-cyclopropylphenyl)-5-fluoropicolinate] |  |  |  | 50% | 62% | 70% | 
COC(=O)c1nc(-c2ccc(Cl)c(OC)c2F)c(F)c(N)c1Cl [E, methyl 4-amino-3-chloro-6-(4-chloro-2-fluoro-3-methoxyphenyl)-5-fluoropicolinate, reference compound] | <4.38 g ae/ha | 14.6 g ae/ha | 55.6 g ae/ha |  |  |  | 
Nc1c(F)c(-c2ccc(C3CC3)cc2)nc(C(=O)OCc2ccccc2)c1Cl [Compound 42, benzyl 4-amino-3-chloro-6-(4-cyclopropylphenyl)-5-fluoropicolinate] |  |  |  | 85% | 95% | 93% | 
COc1c(Cl)ccc(-c2cc(N)c(Cl)c(C(=O)OCc3ccccc3)n2)c1F [Compound 39] |  |  |  |  | 95% | 95% | 95%
COC(=O)c1nc(-c2ccc(Cl)c(OC)c2F)nc(N)c1OC [Compound F, methyl 6-amino-2-(4-chloro-2-fluoro-3-methoxyphenyl)-5-methoxypyrimidine-4-carboxylate, reference compound] |  |  |  |  |  |  | 10%
COC(=O)c1nc(-c2ccc(Cl)c(OC)c2F)cc(N)c1Cl [Compound G, methyl 4-amino-3-chloro-6-(4-chloro-2-fluoro-3-methoxyphenyl)picolinate, reference compound] |  |  |  |  | 85% | 80% | 75%
